The record followed here is US11472811B2, “Pyrazolotriazolopyrimidine derivatives as A2A receptor antagonist” (BEIGENE, LTD., priority 2018, dated 2022).

For this experiment, the target named is human A2A receptor (A2AR) (Homo sapiens (Human), UniProt P29274). Put plainly: Luciferase reporter assay (HEK293-A2AR-luc2p/CRE/Hygro cells). In kind it is cell-based. The following applies: 3 nM CGS21680, 5 h incubation. In outline: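 HEK293 cells stably expressing human A2AR and a CRE-luc2P reporter were seeded in 1% FBS with 1 U/mL adenosine deaminase. After 18 h they were stimulated 5 h with 3 nM CGS21680 plus compound (0.1–10000 nM), then luciferase luminescence was read. IC50 was taken from inhibition curves, with CGS21680 alone set as 100%.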
(Reporter assays use an easily measured gene product as a stand-in for the process of interest.)

human A2A receptor (A2AR), sequence (P29274 whole entry): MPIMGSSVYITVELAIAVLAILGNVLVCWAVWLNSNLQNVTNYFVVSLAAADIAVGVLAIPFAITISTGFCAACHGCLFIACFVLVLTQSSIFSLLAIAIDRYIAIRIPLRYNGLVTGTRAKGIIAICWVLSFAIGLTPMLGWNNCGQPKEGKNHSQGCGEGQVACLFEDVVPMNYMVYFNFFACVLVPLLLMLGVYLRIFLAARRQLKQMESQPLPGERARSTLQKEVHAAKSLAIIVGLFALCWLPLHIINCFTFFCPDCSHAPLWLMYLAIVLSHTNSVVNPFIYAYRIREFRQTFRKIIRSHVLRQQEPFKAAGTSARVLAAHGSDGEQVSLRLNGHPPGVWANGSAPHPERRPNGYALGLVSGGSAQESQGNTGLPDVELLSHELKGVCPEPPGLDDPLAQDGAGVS

`Cc1ccc(CNC(=O)C(c2ccccc2)n2ncc3c2nc(N)n2nc(-c4ccco4)nc32)cc1` (stereo not shown) [Example 25, 2-(5-amino-2-(furan-2-yl)-7H-pyrazolo[4,3-e][1,2,4]triazolo[1,5-c]pyrimidin-7-yl)-N-(4-methylbenzyl)-2-phenylacetamide] had an IC50 of 1.5 nM.

In the case of `CNC(=O)C(c1ccccc1)n1ncc2c1nc(N)n1nc(-c3ccco3)nc21` (stereo not shown) [Example 4, 2-(5-amino-2-(furan-2-yl)-7H-pyrazolo[4,3-e][1,2,4]-triazolo[1,5-c]pyrimidin-7-yl)-N-methyl-2-phenylacetamide], the midpoint of inhibition, the IC50, lay at 3.8 nM. Compared with the last compound, the IC50 is about 2.5-fold higher.

As for `Nc1nc2c(cnn2C(C(=O)NCc2ccccc2OC(F)(F)F)c2ccccc2)c2nc(-c3ccco3)nn12` (stereo not shown) [Example 8, 2-(5-amino-2-(furan-2-yl)-7H-pyrazolo[4,3-e][1,2,4]triazolo[1,5-c]pyrimidin-7-yl)-2-phenyl-N-(2-(trifluoromethoxy)benzyl)acetamide], inhibition was half-maximal at 2 nM (IC50). This IC50 lies about 1.9-fold lower than the previous one.

For the compound `C[C@](C(=O)NC1CCC(=O)CC1)(c1ccccc1)n1ncc2c1nc(N)n1nc(-c3ccco3)nc21` [Example 128B, (R)-2-(5-amino-2-(furan-2-yl)-7H-pyrazolo[4,3-e][1,2,4]triazolo[1,5-c]pyrimidin-7-yl)-N-(4-oxocyclohexyl)-2-phenylpropanamide], it took 7.6 nM to reach half-maximal inhibition (IC50).

Compound `C[C@](C(=O)N[C@H]1COC[C@H]1O)(c1ccccc1)n1ncc2c1nc(N)n1nc(-c3ccco3)nc21` [Example 107B, (R)-2-(5-amino-2-(furan-2-yl)-7H-pyrazolo[4,3-e][1,2,4]triazolo[1,5-c]pyrimidin-7-yl)-N-((3S,4S)-4-hydroxytetrahydrofuran-3-yl)-2-phenylpropanamide] yielded an IC50 of 32.2 nM.

Regarding `Cc1ccnc(CNC(=O)C(C)(c2ccccc2)n2ncc3c2nc(N)n2nc(-c4ccco4)nc32)c1` (stereo not shown) [Example 110, 2-(5-amino-2-(furan-2-yl)-7H-pyrazolo[4,3-e][1,2,4]triazolo[1,5-c]pyrimidin-7-yl)-N-((4-methylpyridin-2-yl)methyl)-2-phenylpropanamide], the IC50 came to 2.4 nM.

In the case of `CC(C(=O)N[C@@H]1CCCC[C@@H]1O)(c1ccccc1)n1ncc2c1nc(N)n1nc(-c3ccco3)nc21` (stereo partly drawn) [Example 58, 2-(5-amino-2-(furan-2-yl)-7H-pyrazolo[4,3-e][1,2,4]triazolo[1,5-c]pyrimidin-7-yl)-N-((1R,2S)-2-hydroxycyclohexyl)-2-phenylpropanamide], inhibition was half-maximal at 1.8 nM (IC50). The IC50 values of the last two compounds are within 1.5-fold of each other.

Compound `CC(C(=O)NC1CCNCC1)(c1ccccc1)n1ncc2c1nc(N)n1nc(-c3ccco3)nc21` (stereo not shown) [Example 101, 2-(5-amino-2-(furan-2-yl)-7H-pyrazolo[4,3-e][1,2,4]triazolo[1,5-c]pyrimidin-7-yl)-2-phenyl-N-(piperidin-4-yl)propanamide] showed an IC50 of 35.1 nM.

With `CC(C(=O)NCC1CCCOC1)(c1ccccc1)n1ncc2c1nc(N)n1nc(-c3ccco3)nc21` (stereo not shown) [Example 61, 2-(5-amino-2-(furan-2-yl)-7H-pyrazolo[4,3-e][1,2,4]triazolo[1,5-c]pyrimidin-7-yl)-2-phenyl-N-((tetrahydro-2H-pyran-3-yl)methyl)propanamide], the IC50 was 12.4 nM. This IC50 is about 2.8-fold lower than that of the compound before.

`COc1cccnc1CNC(=O)[C@@](C)(c1ccccc1)n1ncc2c1nc(N)n1nc(-c3ccco3)nc21` [Example 115B, (R)-2-(5-amino-2-(furan-2-yl)-7H-pyrazolo[4,3-e][1,2,4]triazolo[1,5-c]pyrimidin-7-yl)-N-((3-methoxypyridin-2-yl)methyl)-2-phenylpropanamide] yielded an IC50 of 3.3 nM.

In turn, `C[C@@](C(=O)N[C@H]1CC[C@@H](O)CC1)(c1ccccc1)n1ncc2c1nc(N)n1nc(-c3ccco3)nc21` [Example 76A, (S)-2-(5-amino-2-(furan-2-yl)-7H-pyrazolo[4,3-e][1,2,4]triazolo[1,5-c]pyrimidin-7-yl)-(cis)-N-(4-hydroxycyclohexyl)-2-phenylpropanamide] displayed an IC50 of 40.4 nM.

For the compound `COc1ccc(C(C)(C(=O)NCC2(O)COC2)n2ncc3c2nc(N)n2nc(-c4ccco4)nc32)cc1` (stereo not shown) [Example 86, 2-(5-amino-2-(furan-2-yl)-7H-pyrazolo[4,3-e][1,2,4]triazolo[1,5-c]pyrimidin-7-yl)-N-((3-hydroxyoxetan-3-yl)methyl)-2-(4-methoxyphenyl)propanamide], the midpoint of inhibition, the IC50, lay at 85.9 nM.

`COc1cccnc1CNC(=O)C(C)(c1ccccc1)n1ncc2c1nc(N)n1nc(-c3ccco3)nc21` (stereo not shown) [Example 115, 2-(5-amino-2-(furan-2-yl)-7H-pyrazolo[4,3-e][1,2,4]triazolo[1,5-c]pyrimidin-7-yl)-N-((3-methoxypyridin-2-yl)methyl)-2-phenylpropanamide] had an IC50 of 1.9 nM.

In turn, `CC(C(=O)NCc1cccnc1)(c1ccccc1)n1ncc2c1nc(N)n1nc(-c3ccco3)nc21` (stereo not shown) [Example 84, 2-(5-amino-2-(furan-2-yl)-7H-pyrazolo[4,3-e][1,2,4]triazolo[1,5-c]pyrimidin-7-yl)-2-phenyl-N-(pyridin-3-ylmethyl)propenamide] came in with an IC50 of 17 nM.

Turning to `C[C@](C(=O)N[C@H]1CC[C@H](O)CC1)(c1ccccc1)n1ncc2c1nc(N)n1nc(-c3ccco3)nc21` [Example 52B, (R)-2-(5-amino-2-(furan-2-yl)-7H-pyrazolo[4,3-e][1,2,4]triazolo[1,5-c]pyrimidin-7-yl)-N-((trans)-4-hydroxycyclohexyl)-2-phenylpropanamide], the IC50 is 5 nM.

Take `COc1cccc(CNC(=O)C(C)(c2ccccc2)n2ncc3c2nc(N)n2nc(-c4ccco4)nc32)n1` (stereo not shown) [Example 112, 2-(5-amino-2-(furan-2-yl)-7H-pyrazolo[4,3-e][1,2,4]triazolo[1,5-c]pyrimidin-7-yl)-N-((6-methoxypyridin-2-yl)methyl)-2-phenylpropanamide]: the concentration for half-maximal inhibition (IC50) was determined as 4.1 nM.

On to `CC(C(=O)N[C@H]1CCCC[C@H]1O)(c1ccccc1)n1ncc2c1nc(N)n1nc(-c3ccco3)nc21` (stereo partly drawn) [Example 56, 2-(5-amino-2-(furan-2-yl)-7H-pyrazolo[4,3-e][1,2,4]triazolo[1,5-c]pyrimidin-7-yl)-N-((1S,2R)-2-hydroxycyclohexyl)-2-phenylpropanamide], for which half-maximal inhibition (IC50) was put at 10.9 nM.

Compound `Nc1nc2c(cnn2C(C(=O)N[C@@H]2CCC[C@@H]2O)c2ccccc2)c2nc(-c3ccco3)nn12` (stereo partly drawn) [Example 90, 2-(5-amino-2-(furan-2-yl)-7H-pyrazolo[4,3-e][1,2,4]triazolo[1,5-c]pyrimidin-7-yl)-N-((1R,2S)-2-hydroxycyclopentyl)-2-phenylacetamide] returned an IC50 of 6.9 nM.

In the case of `Nc1nc2c(cnn2C(C(=O)NCCc2ccccc2)c2ccccc2)c2nc(-c3ccco3)nn12` (stereo not shown) [Example 17, 2-(5-amino-2-(furan-2-yl)-7H-pyrazolo[4,3-e][1,2,4]triazolo[1,5-c]pyrimidin-7-yl)-N-phenethyl-2-phenylacetamide], the IC50 worked out at 3 nM.

In turn, `CN(C)CCNC(=O)C(C)(c1ccccc1)n1ncc2c1nc(N)n1nc(-c3ccco3)nc21` (stereo not shown) [Example 62, 2-(5-amino-2-(furan-2-yl)-7H-pyrazolo[4,3-e][1,2,4]triazolo[1,5-c]pyrimidin-7-yl)-N-(2-(dimethylamino)ethyl)-2-phenylpropanamide] displayed an IC50 of 91.1 nM.

Compound `CC(C(=O)NCc1ccccc1)(c1ccccc1)n1ncc2c1nc(N)n1nc(-c3ccco3)nc21` (stereo not shown) [Example 35, 2-(5-amino-2-(furan-2-yl)-7H-pyrazolo[4,3-e][1,2,4]triazolo[1,5-c]pyrimidin-7-yl)-N-benzyl-2-phenylpropanamide] had an IC50 of 10.7 nM.

For the compound `CC(C(=O)N[C@@H]1CC[C@@H](O)C1)(c1ccccc1)n1ncc2c1nc(N)n1nc(-c3ccco3)nc21` (stereo partly drawn) [Example 94, 2-(5-amino-2-(furan-2-yl)-7H-pyrazolo[4,3-e][1,2,4]triazolo[1,5-c]pyrimidin-7-yl)-N-((1R,3R)-3-hydroxycyclopentyl)-2-phenylpropanamide], inhibition was half-maximal at 11.2 nM (IC50).

Compound `CC(C(=O)NC[C@H]1CCOC1)(c1ccccc1)n1ncc2c1nc(N)n1nc(-c3ccco3)nc21` (stereo partly drawn) [Example 54, 2-(5-amino-2-(furan-2-yl)-7H-pyrazolo[4,3-e][1,2,4]triazolo[1,5-c]pyrimidin-7-yl)-2-phenyl-N—(((R)-tetrahydrofuran-3-yl)methyl)propanamide] registered an IC50 of 8.1 nM. The IC50 values of the last two compounds are within 1.5-fold of each other.

With `CC(C(=O)N[C@H]1C[C@@](C)(O)C1)(c1ccccc1)n1ncc2c1nc(N)n1nc(-c3ccco3)nc21` (stereo partly drawn) [Example 105, 2-(5-amino-2-(furan-2-yl)-7H-pyrazolo[4,3-e][1,2,4]triazolo[1,5-c]pyrimidin-7-yl)-N-((1S,3S)-3-hydroxy-3-methylcyclobutyl)-2-phenylpropanamide], the midpoint of inhibition, the IC50, lay at 10.7 nM.

Regarding `CNC(=O)C(C)(c1ccccc1)n1ncc2c1nc(N)n1nc(-c3ccco3)nc21` (stereo not shown) [Example 32, 2-(5-amino-2-(furan-2-yl)-7H-pyrazolo[4,3-e][1,2,4]triazolo[1,5-c]pyrimidin-7-yl)-N-methyl-2-phenylpropanamide], the half-inhibitory concentration (IC50) was 25 nM.

As to `C[C@](C(=O)N[C@H]1C[C@H](O)C1)(c1ccccc1)n1ncc2c1nc(N)n1nc(-c3ccco3)nc21` [Example 102B, (R)-2-(5-amino-2-(furan-2-yl)-7H-pyrazolo[4,3-e][1,2,4]triazolo[1,5-c]pyrimidin-7-yl)-(trans)-N-(3-hydroxycyclobutyl)-2-phenylpropanamide], half-maximal inhibition (IC50) required 10.7 nM.

Turning to `C[C@](C(=O)NCc1ncccc1F)(c1ccccc1)n1ncc2c1nc(N)n1nc(-c3ccco3)nc21` [Example 119B, (R)-2-(5-amino-2-(furan-2-yl)-7H-pyrazolo[4,3-e][1,2,4]triazolo[1,5-c]pyrimidin-7-yl)-N-((3-fluoropyridin-2-yl)methyl)-2-phenylpropanamide], the IC50 was determined as 2 nM.

As for `Nc1nc2c(cnn2C(C(=O)NC2CCCc3ccccc32)c2ccccc2)c2nc(-c3ccco3)nn12` (stereo not shown) [Example 13, 2-(5-amino-2-(furan-2-yl)-7H-pyrazolo[4,3-e][1,2,4]triazolo[1,5-c]pyrimidin-7-yl)-2-phenyl-N-(1,2,3,4-tetrahydronaphthalen-1-yl)acetamide], it took 8.3 nM to reach half-maximal inhibition (IC50).

In general, IC50 refers to the concentration that gives 50% inhibition. A higher IC50 goes with weaker potency in that assay.
